{"source": "patent US20150182605A1", "about": "“Ultra-Low Dose Lysostaphin for Treating MRSA” (priority 2013, published 2015)", "key": {"[1]": {"test_system": "SA5 (ATCC 49521)", "test": "Effect of antibiotics and lysostaphin on growth of SA5 (% T, 96-well)", "type": "cell-based, Staphylococcus aureus", "details": "for inhibition and killing of the staph by antibiotic alone: antibiotic alone at 25 or 12.5 mg/ml, 5 and 22 hours", "procedure": "It was determined whether low levels of lysostaphin would act synergistically with Nafcillin or Oxacillin to kill an SA5 (ATCC 49521). The study was performed in a 96-well dish to allow titration of lysostaphin and antibiotics. The end point was % T. Plating of bacteria from the assay plate was not done.\nFifty μl of SA5 (ATCC 49521) was reconstituted from a frozen stock and grown overnight on a blood agar plate at 37° C. Bacteria were transferred from the blood agar plate (approximately 25% of the lawn) into 30 mls of TSB and grown for 2 hours at 37° C. on a rotating shaker set at 250 rpm. […] A 1:4 dilution of this suspension in TSB gave a % T of ˜50% in a 96 well dish.\nFor the assay, lysostaphin (Sigma Cat L7386; lot 063M4011V; 3387.5 units/ml stock in water) was diluted in three-fold dilutions (in TSB) from 3 units/ml (row A) to 0.0123 units/ml (row G) in 50 μl/well. The wells in row H received TSB alone. This plate was designated the assay plate. In a separate 96-well plate (i.e. the dilution plate), Nafcillin (Sigma Cat N3269; lot SLBF8230V, 50 mg/ml in water) was diluted in TSB to 25 mg/ml and a second dilution of 12.5 mg/ml was also prepared (columns 1 and 2 of the dilution plate). Oxacillin (Sigma Cat 01002; lot SLBC9948V; 50 mg/ml in water) was diluted to 25 mg/ml in TSB and a second dilution of 12.5 mg/ml was also prepared (columns 4 and 5 of the dilution plate).\nFifty μl of the antibiotic solutions were transferred to the corresponding wells of the assay plate containing the lysostaphin solution. 50 μl of TSB alone was transferred to columns 3 and 6 (i.e. no antibiotic controls) of the assay plate. The combination of antibiotics and lysostaphin yielded a volume of 100 μl. 125 μl of S. aureus 49521, diluted 1:2 in TSB was then added to all wells of the plate, except wells H1, H2, H4 and H5, which served as the blank well for determining the % T. After addition of the bacteria, and between each determination of the % T, the plate was incubated at 37° C. with gentle rotation (˜50 rpm). The % T was then determined at 2 and 15 minutes after addition of the bacteria, and again at 5 hours and 22 hours after addition of the bacteria."}, "[2]": {"test_system": "SA5", "test": "% T lysis assay of SA5 in 96-well configuration", "type": "cell-based, Staphylococcus aureus", "details": "0.1 μg/ml; for change in % T / killing: neat solution of SA5, 10 minutes at 37° C. (FIG. 4)", "procedure": "A second assay was performed in which the SA5 and lysostaphin were tested in a 96-well configuration. For this assay, 100 μl of the SA5 solution was added to wells followed by 100 μl of the lysostaphin solution. % T was obtained at TO and the plate incubated at 37° C. for 10 minutes with gentle rotation. The % T was obtained and the results compared."}, "[3]": {"test_system": "S. aureus type 5 (ATCC 49521)", "test": "% T (turbidity) lysis assay of S. aureus type 5 suspension in tubes", "type": "cell-based, Staphylococcus aureus", "details": "10 minutes at 37° C.", "procedure": "50 μl of S. aureus type 5 (ATCC 49521) was plated onto blood agar plates and incubated overnight. The resulting bacterial lawn was transferred to 30 mls of TSB (tryptic soy broth; Remel cat 112740) and incubated at 37° C. for about 60 minutes at 225 rpm. The percent transmission (% T) of the bacterial suspension following incubation was about 7%. The % T was adjusted to 53% by addition of 100 μl of bacterial suspension to 4500 μl of TSB (in five individual tubes) and the % T was measured in each tube. An additional tube contained TSB alone. Tube #1 received no lysostaphin. Tube #2 was designated to receive 550 μl of recombinant lysostaphin, but the lysostaphin was erroneously added to Tube #3, and thus, Tube #2 was discarded. Tube #3 received 550 μl recombinant lysostaphin (from a 2,000 μg/ml stock solution) for a final concentration of about 220 μg/ml (this tube erroneously received lysostaphin dose intended for tube #2 (i.e. 500 μl of lysostaphin stock) plus the 50 μl of lysostaphin originally intended for this tube. Tube #4 received 500 μl of natural lysostaphin from S. staphylolyticus (from a 2,000 μg/ml stock solution) for a final concentration of about 200 μg/ml. Tube #5 received 50 μl of natural lysostaphin from S. staphylolyticus (from a 2,000 μg/ml stock solution) for a final concentration of about 20 μg/ml. The tubes were vortexed, incubated at 37° C. for 10 minutes at 150 rpm and the % T for each determined (see FIG. 3 which is summarized in Table 2). An increase in the % T indicates killing of bacteria. Both lysostaphins were highly likely active against this SA5."}, "[4]": {"test_system": "anti-lysostaphin antibodies", "test": "Assay of mouse sera on lysostaphin-coated plates after immunization", "type": "binding", "details": "gamma-specific detection, compared with the other lysostaphin as coating antigen, regardless of the immunogen", "procedure": "Assay of mouse sera on plates coated with lysostaphin from simulans expressed as recombinant in E coli and coated with natural lysostaphin from S. staphylolyticus. Mice received a primary immunization (subcutaneous) with 10 μg recombinant lysostaphin from E. coli (Sigma-Aldrich) (animal numbers 8603, 8604) or 10 μg of natural lysostaphin from S. staphylolyticus (Sigma-Aldrich) (animal numbers 8621-8623). Primary immunization was administered and boosted about three weeks later. No adjuvant was used for the immunizations. Serum samples were tested using gamma-specific detection (FIGS. 1 and 2). Bars represent binding seen with normal serum (first bar), serum after the first injection (second bar), and serum after the boost injection three weeks later (third and in most cases largest bar). The results on wells coated with simulans lysostaphin (FIG. 1) were stronger than the results on wells coated with staphylolyticus lysostaphin (FIG. 2), regardless of the immunogen. Mouse 8621 was poorly reactive on both coating antigens. Note that each graph is scaled to 1.500 on the y-axis for comparison purposes."}, "[5]": {"test_system": "S. aureus cells", "details": "from COA; cited from earlier work"}, "[6]": {"test_system": "S. aureus cells", "test": "Enzymatic activity per certificate of analysis (COA)", "type": "biochemical, Staphylococcus aureus", "details": "from COAs of both products", "procedure": "Doses may also be as international units. One international unit (IU) is about 3.1 μg and will reduce the turbidity (A620) of a suspension of S. aureus cells from 0.250 to 0.125 in 10 minutes at pH 7.5 at 37° C. in a 6.0 ml reaction mixture."}}}
{"molecule": "CCOc1ccc2ccccc2c1C(=O)N[C@@H]1C(=O)N2[C@@H]1SC(C)(C)[C@@H]2C(=O)O", "note": "[Nafcillin, reference compound]", "values": [{"measurement": "inhibition and killing of the staph by antibiotic alone", "setting": "[1]", "value": "ineffective rapid inhibition and killing"}]}
{"molecule": "natural lysostaphin: natural lysostaphin from S. staphylolyticus (Sigma-Aldrich)", "values": [{"measurement": "change in % T", "setting": "[2]; SA5 at a dilution of 1:2 vs neat SA5 (FIG. 5)", "value": "greater change"}, {"measurement": "change in % T / killing", "setting": "[2]", "value": "increased only slightly"}, {"measurement": "Ending % T", "setting": "[3]; 20 μg/ml, tube 5", "value": 95.0, "unit": "% T"}, {"measurement": "Ending % T", "setting": "[3]; 200 μg/ml, tube 4", "value": 94.6, "unit": "% T"}]}
{"molecule": "Cc1onc(-c2ccccc2)c1C(=O)N[C@@H]1C(=O)N2[C@@H]1SC(C)(C)[C@@H]2C(=O)O", "note": "[Oxacillin, reference compound]", "values": [{"measurement": "inhibition and killing of the staph by antibiotic alone", "setting": "[1]", "value": "ineffective rapid inhibition and killing"}]}
{"molecule": "recombinant lysostaphin: lysostaphin from simulans expressed as recombinant in E. coli (Sigma-Aldrich)", "values": [{"measurement": "binding of mouse serum antibodies to the coated lysostaphin", "setting": "[4]", "value": "markedly higher binding"}, {"measurement": "binding of mouse serum antibodies to the coated lysostaphin", "setting": "[4]; listed as simulans lysostaphin", "value": "stronger"}, {"measurement": "change in % T / killing", "setting": "[2]", "value": "remained strong"}, {"measurement": "Ending % T", "setting": "[3]; 220 μg/ml, tube 3, increase in % T indicates killing", "value": 94.0, "unit": "% T"}, {"measurement": "enzymatic activity", "setting": "[5]", "value": "greater than 3,000 units per mg"}, {"measurement": "activity relative to natural lysostaphin", "setting": "[6]", "value": "6-7 fold"}]}
{"molecule": "lysostaphin: lysostaphin (Sigma Cat L7386; lot 063M4011V; 3387.5 units/ml stock in water); 27 kD glycylglycine endopeptidase", "values": [{"measurement": "synergy of lysostaphin with the antibiotics", "setting": "[1]; lysostaphin 0.0123 units/ml with Nafcillin or Oxacillin, 5 to 22 hours", "value": "acted synergistically"}, {"measurement": "% T", "setting": "[1]; lysostaphin 0.0123 units/ml without antibiotic, 5 hours, FIG. 8", "value": 97.0, "unit": "% T"}, {"measurement": "% T", "setting": "[1]; lysostaphin 0.0123 units/ml without antibiotic, 5 hours, FIG. 11", "value": 98.0, "unit": "% T"}, {"measurement": "% T", "setting": "[1]; lysostaphin 0.0123 units/ml without antibiotic, 22 hours, FIG. 8", "value": 75.4, "unit": "% T"}, {"measurement": "% T", "setting": "[1]; lysostaphin 0.0123 units/ml without antibiotic, 22 hours, FIG. 11", "value": 60.2, "unit": "% T"}, {"measurement": "% T", "setting": "[1]; lysostaphin 0.0123 units/ml, within 5 hours", "value": "> 95", "unit": "% T"}, {"measurement": "% T", "setting": "[1]; lysostaphin at concentrations higher than 0.0123 units/ml, at 5 (not shown)", "value": "> 95", "unit": "%"}, {"measurement": "% T", "setting": "[1]; most concentrations of lysostaphin, without antibiotics, after 22 hours", "value": "below 70%"}]}
